Organism: Rattus norvegicus
Test: Displacement of [3H]TCP from PCP receptor in tissue preparation of whole rat brain minus cerebellum.
Format: functional, organism-based

| SMILES | Ki |
| --- | --- |
| CCC1(CC)OC[C@H]([C@@H]2CCCCN2)O1 | 87000 nM |
| CC[C@]1(c2cccc(O)c2)OC[C@H]([C@@H]2CCCCN2)O1 | 489 nM |
| c1ccc(CN2CCCC[C@H]2[C@H]2COC(c3ccccc3)(c3ccccc3)O2)cc1 | 10100 nM |
| CN1CCCC[C@H]1[C@H]1COC(c2ccccc2)(c2ccccc2)O1 | 4400 nM |
| CC[C@]1(c2ccccc2Cl)OC[C@H]([C@@H]2CCCCN2)O1 | 14.3 nM |
| CC[C@]1(c2ccccc2F)OC[C@H]([C@@H]2CCCCN2)O1 | 36 nM |
| CNC[C@H]1COC(c2ccccc2)(c2ccccc2)O1 | 7300 nM |
| NC[C@H]1COC(c2ccccc2)(c2ccccc2)O1 | 1400 nM |
| CC[C@]1(c2cccc([N+](=O)[O-])c2)OC[C@H]([C@@H]2CCCCN2)O1 | 1320 nM |
| CCCCCCCCC[C@]1(c2ccccc2)OC[C@H]([C@@H]2CCCCN2)O1 | 43000 nM |
| CCCC[C@]1(c2ccccc2)OC[C@H]([C@@H]2CCCCN2)O1 | 200 nM |
| CC[C@]1(c2ccc(O)cc2)OC[C@H]([C@@H]2CCCCN2)O1 | 19900 nM |
| C=CCN1CCCC[C@H]1[C@H]1COC(c2ccccc2)(c2ccccc2)O1 | 15200 nM |
| CCC[C@H](NC)[C@H]1COC(c2ccccc2)(c2ccccc2)O1 | 7000 nM |
| c1ccc(C2(c3ccccc3)OCC(C3CCCCN3)CO2)cc1 (stereo not drawn) | > 100000 nM |
| CC[C@]1(c2cccc(Cl)c2)OC[C@H]([C@@H]2CCCCN2)O1 | 59 nM |
| C1=Cc2ccccc2C2(OC[C@H]([C@@H]3CCCCN3)O2)c2ccccc21 | 325 nM |
| CCNC[C@H]1COC(c2ccccc2)(c2ccccc2)O1 | 8400 nM |
| C[C@H](N)[C@H]1COC(c2ccccc2)(c2ccccc2)O1 | 607 nM |
| CC(C)[C@]1(c2ccccc2)OC[C@H]([C@@H]2CCCCN2)O1 | 45 nM |
| CC[C@]1(c2cccc(N=C=S)c2)OC[C@H]([C@@H]2CCCCN2)O1 | 590 nM |
| CN[C@@H](C)[C@H]1COC(c2ccccc2)(c2ccccc2)O1 | 703 nM |

| SMILES | Ki |
| --- | --- |
| CC[C@]1(c2ccsc2)OC[C@H]([C@@H]2CCCCN2)O1 | 124 nM |
| c1ccc(C2(c3ccccc3)OC[C@H]([C@@H]3CCCN3)O2)cc1 | > 10000 nM |
| CCN[C@@H](C)[C@H]1COC(c2ccccc2)(c2ccccc2)O1 | 9000 nM |
| CCCCCCN1CCCC[C@H]1[C@H]1COC(c2ccccc2)(c2ccccc2)O1 | 21200 nM |
| CC[C@]1(c2ccccc2O)OC[C@H]([C@@H]2CCCCN2)O1 | 293 nM |
| CC[C@]1(c2ccc(Cl)cc2)OC[C@H]([C@@H]2CCCCN2)O1 | 2800 nM |
| CC[C@]1(c2cccc(N)c2)OC[C@H]([C@@H]2CCCCN2)O1 | 1230 nM |
| CCC[C@]1(c2ccccc2)OC[C@H]([C@@H]2CCCCN2)O1 | 69 nM |
| CC[C@]1(c2cccs2)OC[C@H]([C@@H]2CCCCN2)O1 | 205 nM |
| CCN1CCCC[C@H]1[C@H]1COC(c2ccccc2)(c2ccccc2)O1 | 6900 nM |
| c1ccc(C2(c3ccccc3)OC[C@@H]([C@@H]3CCCN3)O2)cc1 | 3300 nM |
| CC[C@]1(c2ccc(F)cc2)OC[C@H]([C@@H]2CCCCN2)O1 | 649 nM |
| C[C@]1(c2ccccc2)OC[C@H]([C@@H]2CCCCN2)O1 | 847 nM |
| CCC[C@H](N)[C@H]1COC(c2ccccc2)(c2ccccc2)O1 | 3450 nM |
| CCCN1CCCC[C@H]1[C@H]1COC(c2ccccc2)(c2ccccc2)O1 | 6800 nM |
| c1ccc([C@H]2OC[C@H]([C@@H]3CCCCN3)O2)cc1 | 25000 nM |
| c1ccc2c(c1)-c1ccccc1C21OC[C@H]([C@@H]2CCCCN2)O1 | 15500 nM |
| c1ccc(C2(c3ccccc3)CCC(C3CCCCN3)C2)cc1 (single isomer, unassigned; 40a) | 52000 nM |
| c1ccc(C2(c3ccccc3)CCC(C3CCCCN3)C2)cc1 (single isomer, unassigned; 40b) | 8300 nM |
| CC[C@]1(c2ccccc2)OC[C@H]([C@@H]2CCCCN2)O1 [ETOXADROL] | 107 nM |
| c1ccc(C2(N3CCCCC3)CCCCC2)cc1 [PHENCYCLIDINE] | 80 nM |
